# From publication PMC4805204, “Robust Stimulation of W1282X-CFTR Channel Activity by a Combination of Allosteric Modulators” (PLoS ONE, 2016)
# Biological target: T1, Δ1198-CFTR (Homo sapiens, UniProt P13569)
# T1 construct: NBD2 deletion construct; V1198 replaced with a termination codon
# Assay: inside-out macropatch clamp of HEK-293T cells, […] curcumin, order of addition with VX-770
# Format: cell-based
# T1 sequence (P13569 1-1197, stated change not applied): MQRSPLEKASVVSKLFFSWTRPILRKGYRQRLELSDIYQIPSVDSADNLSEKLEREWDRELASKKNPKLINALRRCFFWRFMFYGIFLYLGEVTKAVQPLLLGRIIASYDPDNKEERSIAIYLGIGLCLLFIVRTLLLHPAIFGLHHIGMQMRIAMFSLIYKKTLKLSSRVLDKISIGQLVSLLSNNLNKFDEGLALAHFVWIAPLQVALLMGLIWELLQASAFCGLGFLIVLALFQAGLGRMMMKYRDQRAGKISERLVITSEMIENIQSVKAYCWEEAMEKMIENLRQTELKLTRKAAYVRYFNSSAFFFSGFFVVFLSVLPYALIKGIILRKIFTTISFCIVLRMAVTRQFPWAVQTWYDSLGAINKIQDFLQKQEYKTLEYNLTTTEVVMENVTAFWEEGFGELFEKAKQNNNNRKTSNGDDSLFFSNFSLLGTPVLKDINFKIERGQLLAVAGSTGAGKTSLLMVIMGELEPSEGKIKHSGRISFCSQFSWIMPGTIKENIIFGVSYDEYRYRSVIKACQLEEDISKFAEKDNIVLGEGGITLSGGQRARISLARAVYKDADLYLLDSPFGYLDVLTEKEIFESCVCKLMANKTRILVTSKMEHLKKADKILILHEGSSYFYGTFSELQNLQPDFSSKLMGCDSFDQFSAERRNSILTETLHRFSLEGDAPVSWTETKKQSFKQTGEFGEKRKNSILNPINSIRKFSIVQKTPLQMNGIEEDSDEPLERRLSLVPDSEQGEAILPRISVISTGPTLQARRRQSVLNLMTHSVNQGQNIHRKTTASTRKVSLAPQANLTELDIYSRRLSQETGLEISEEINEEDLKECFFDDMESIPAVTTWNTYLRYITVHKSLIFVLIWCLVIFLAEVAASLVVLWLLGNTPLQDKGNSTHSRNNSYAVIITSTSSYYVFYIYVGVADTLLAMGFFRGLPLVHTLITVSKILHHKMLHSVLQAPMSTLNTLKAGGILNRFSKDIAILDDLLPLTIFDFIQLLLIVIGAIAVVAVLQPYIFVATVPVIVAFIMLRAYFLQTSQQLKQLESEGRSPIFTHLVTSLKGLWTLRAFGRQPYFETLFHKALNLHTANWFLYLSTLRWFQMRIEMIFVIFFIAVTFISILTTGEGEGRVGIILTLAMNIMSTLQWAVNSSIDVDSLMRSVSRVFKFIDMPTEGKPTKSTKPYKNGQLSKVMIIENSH
structure (smiles),measurement,value
COc1cc(/C=C/C(=O)CC(=O)/C=C/c2ccc(O)c(OC)c2)ccc1O [curcumin],"inside-out macropatch clamp of HEK-293T cells, 30 uM curcumin, order of addition",Mean percent stimulation of W1282X-CFTR or Δ1198-CFTR current by each compound alone
